# Assay results published in US10131652B2, “Pyrimidinyloxy benzene derivatives as herbicides” (E. I. DU PONT DE NEMOURS AND COMPANY, priority 2014, dated 2018).
# Like-named read-outs stand apart in the source and are kept apart here.
# Key:
# Assay in all cases: Test E pre-/postemergence plant response
# Type in all cases: in vivo
# [1] = system: canarygrass (Phalaris minor); details: scale 0 to 100, read-out: Plant response rating, Canarygrass; for pest or weed control at 16 g/ha: 16 g ai/ha; for pest or weed control at 31 g/ha: 31 g ai/ha; for pest or weed control at 62 g/ha: 62 g ai/ha; for pest or weed control at 125 g/ha: 125 g ai/ha
# Excerpt: (§1) Seeds of plant species selected from bluegrass (annual bluegrass, Poa annua), blackgrass (Alopecurus myosuroides), canarygrass (Phalaris minor), chickweed (common chickweed, Stellaria media), galium (catchweed bedstraw, Galium aparine), downy bromegrass (Bromus tectorum), field poppy (Papaver rhoeas), field violet (Viola arvensis), green foxtail (Setaria viridis), deadnettle (henbit deadnettle, Lamium amplexicaule), Italian ryegrass (Lolium multiflorum), kochia (Kochia scoparia), lambsquarters (Chenopodium album), oilseed rape (Brassica napus), pigweed (Amaranthus retroflexus), Russian thistle (Salsola iberica), chamomile (scentless chamomile, Matricaria inodora), speedwell (bird's-eye speedwell, Veronica persica), spring barley (Hordeum vulgare), spring wheat (Triticum aestivum), wild buckwheat (Polygonum convolvulus), wild mustard (Sinapis arvensis), wild oat (Avena fatua), wild radish (Raphanus raphanistrum), windgrass (Apera spica-venti), winter barley (Hordeum vulgare), and winter wheat (Triticum aestivum) were planted into a silt loam soil and treated preemergence with test chemicals formulated in a non-phytotoxic solvent mixture which included a surfactant. At the same time, these species were planted in pots containing Redi-Earth® planting medium (Scotts Company, 14111 Scottslawn Road, Marysville, Ohio 43041) comprising spaghnum peat moss, vermiculite, wetting agent and starter nutrients and treated with postemergence applications of the test chemicals formulated in the same manner. Plants ranged in height from 2 to 18 cm (1- to 4-leaf stage).
# (§2) Treated plants and controls were maintained in a controlled growth environment for 7 to 21 days after which time all species were compared to controls and visually evaluated. Plant response ratings, summarized in Table E, are based on a scale of 0 to 100 where 0 is no effect and 100 is complete control. A dash (-) response means no test result.
# [2] = system: field poppy (Papaver rhoeas); details: scale 0 to 100, read-out: Plant response rating, Field Poppy; for pest or weed control at 16 g/ha: 16 g ai/ha; for pest or weed control at 31 g/ha: 31 g ai/ha; for pest or weed control at 62 g/ha: 62 g ai/ha; for pest or weed control at 125 g/ha: 125 g ai/ha
# Excerpt: as §1, §2
# [3] = system: blackgrass (Alopecurus myosuroides); details: scale 0 to 100, read-out: Plant response rating, Blackgrass; for pest or weed control at 16 g/ha: 16 g ai/ha; for pest or weed control at 31 g/ha: 31 g ai/ha; for pest or weed control at 62 g/ha: 62 g ai/ha; for pest or weed control at 125 g/ha: 125 g ai/ha
# Excerpt: as §1, §2
# [4] = system: pigweed (Amaranthus retroflexus); details: scale 0 to 100, read-out: Plant response rating, Pigweed; for pest or weed control at 16 g/ha: 16 g ai/ha; for pest or weed control at 31 g/ha: 31 g ai/ha; for pest or weed control at 62 g/ha: 62 g ai/ha; for pest or weed control at 125 g/ha: 125 g ai/ha
# Excerpt: as §1, §2
# [5] = system: deadnettle (henbit deadnettle, Lamium amplexicaule); details: scale 0 to 100, read-out: Plant response rating, Deadnettle; for pest or weed control at 16 g/ha: 16 g ai/ha; for pest or weed control at 31 g/ha: 31 g ai/ha; for pest or weed control at 62 g/ha: 62 g ai/ha; for pest or weed control at 125 g/ha: 125 g ai/ha
# Excerpt: as §1, §2
# [6] = system: green foxtail (Setaria viridis); details: scale 0 to 100, read-out: Plant response rating, Foxtail, Green; for pest or weed control at 16 g/ha: 16 g ai/ha; for pest or weed control at 31 g/ha: 31 g ai/ha; for pest or weed control at 62 g/ha: 62 g ai/ha; for pest or weed control at 125 g/ha: 125 g ai/ha
# Excerpt: as §1, §2
# [7] = system: wild mustard (Sinapis arvensis); details: Brassica, scale 0 to 100, read-out: Plant response rating, Mustard, Wild; for pest or weed control at 16 g/ha: 16 g ai/ha; for pest or weed control at 31 g/ha: 31 g ai/ha; for pest or weed control at 62 g/ha: 62 g ai/ha; for pest or weed control at 125 g/ha: 125 g ai/ha
# Excerpt: as §1, §2
# [8] = system: chamomile (scentless chamomile, Matricaria inodora); details: Tripleurospermum inodorum, post-emergence, Postemergence, scale 0 to 100, read-out: Plant response rating, Chamomile
# Excerpt: as §1, §2
# [9] = system: windgrass (Apera spica-venti); details: scale 0 to 100, read-out: Plant response rating, Windgrass; for pest or weed control at 16 g/ha: 16 g ai/ha; for pest or weed control at 62 g/ha: 62 g ai/ha; for pest or weed control at 125 g/ha: 125 g ai/ha
# Excerpt: as §1, §2
# [10] = system: winter barley (Hordeum vulgare); details: scale 0 to 100, read-out: Plant response rating, Barley, Winter; for plant injury at 16 g/ha: 16 g ai/ha; for plant injury at 31 g/ha: 31 g ai/ha; for plant injury at 62 g/ha: 62 g ai/ha; for plant injury at 125 g/ha: 125 g ai/ha
# Excerpt: as §1, §2
# [11] = system: downy bromegrass (Bromus tectorum); details: scale 0 to 100, read-out: Plant response rating, Bromegrass, Downy; for pest or weed control at 16 g/ha: 16 g ai/ha; for pest or weed control at 31 g/ha: 31 g ai/ha; for pest or weed control at 62 g/ha: 62 g ai/ha; for pest or weed control at 125 g/ha: 125 g ai/ha
# Excerpt: as §1, §2
structure (smiles),measurement,setting,value
"Fc1cccc(Oc2ncc(Cl)cn2)c1-c1cc(C(F)F)on1 [Compound 55, 5-chloro-2-[2-[5-(difluoromethyl)-3-isoxazolyl]-3-fluorophenoxy]pyrimidine]",pest or weed control at 16 g/ha,"[1]; post-emergence, Postemergence",10%
same,pest or weed control at 31 g/ha,"[1]; post-emergence, Postemergence",20%
same,pest or weed control at 62 g/ha,"[1]; post-emergence, Postemergence",30%
same,pest or weed control at 125 g/ha,"[1]; post-emergence, Postemergence",30%
same,pest or weed control at 16 g/ha,"[1]; pre-emergence, Preemergence",10%
same,pest or weed control at 31 g/ha,"[1]; pre-emergence, Preemergence",20%
same,pest or weed control at 62 g/ha,"[1]; pre-emergence, Preemergence",100%
same,pest or weed control at 125 g/ha,"[1]; pre-emergence, Preemergence",100%
same,pest or weed control at 16 g/ha,"[2]; post-emergence, Postemergence",85%
same,pest or weed control at 31 g/ha,"[2]; post-emergence, Postemergence",90%
same,pest or weed control at 62 g/ha,"[2]; post-emergence, Postemergence",100%
same,pest or weed control at 125 g/ha,"[2]; post-emergence, Postemergence",95%
same,pest or weed control at 16 g/ha,"[2]; pre-emergence, Preemergence",100%
same,pest or weed control at 31 g/ha,"[2]; pre-emergence, Preemergence",100%
same,pest or weed control at 62 g/ha,"[2]; pre-emergence, Preemergence",100%
same,pest or weed control at 125 g/ha,"[2]; pre-emergence, Preemergence",100%
same,pest or weed control at 16 g/ha,"[3]; post-emergence, Postemergence",5%
same,pest or weed control at 31 g/ha,"[3]; post-emergence, Postemergence",10%
same,pest or weed control at 62 g/ha,"[3]; post-emergence, Postemergence",20%
same,pest or weed control at 125 g/ha,"[3]; post-emergence, Postemergence",40%
same,pest or weed control at 16 g/ha,"[3]; pre-emergence, Preemergence",0%
same,pest or weed control at 31 g/ha,"[3]; pre-emergence, Preemergence",15%
same,pest or weed control at 62 g/ha,"[3]; pre-emergence, Preemergence",60%
same,pest or weed control at 125 g/ha,"[3]; pre-emergence, Preemergence",100%
same,pest or weed control at 16 g/ha,"[4]; post-emergence, Postemergence",85%
same,pest or weed control at 31 g/ha,"[4]; post-emergence, Postemergence",90%
same,pest or weed control at 62 g/ha,"[4]; post-emergence, Postemergence",95%
same,pest or weed control at 125 g/ha,"[4]; post-emergence, Postemergence",95%
same,pest or weed control at 16 g/ha,"[4]; pre-emergence, Preemergence",75%
same,pest or weed control at 31 g/ha,"[4]; pre-emergence, Preemergence",100%
same,pest or weed control at 62 g/ha,"[4]; pre-emergence, Preemergence",100%
same,pest or weed control at 125 g/ha,"[4]; pre-emergence, Preemergence",100%
same,pest or weed control at 16 g/ha,"[5]; post-emergence, Postemergence",20%
same,pest or weed control at 31 g/ha,"[5]; post-emergence, Postemergence",50%
same,pest or weed control at 62 g/ha,"[5]; post-emergence, Postemergence",70%
same,pest or weed control at 125 g/ha,"[5]; post-emergence, Postemergence",80%
same,pest or weed control at 16 g/ha,"[5]; pre-emergence, Preemergence",0%
same,pest or weed control at 31 g/ha,"[5]; pre-emergence, Preemergence",0%
same,pest or weed control at 62 g/ha,"[5]; pre-emergence, Preemergence",0%
same,pest or weed control at 125 g/ha,"[5]; pre-emergence, Preemergence",0%
same,pest or weed control at 16 g/ha,"[6]; post-emergence, Postemergence",30%
same,pest or weed control at 31 g/ha,"[6]; post-emergence, Postemergence",45%
same,pest or weed control at 62 g/ha,"[6]; post-emergence, Postemergence",50%
same,pest or weed control at 125 g/ha,"[6]; post-emergence, Postemergence",60%
same,pest or weed control at 16 g/ha,"[6]; pre-emergence, Preemergence",10%
same,pest or weed control at 31 g/ha,"[6]; pre-emergence, Preemergence",25%
same,pest or weed control at 62 g/ha,"[6]; pre-emergence, Preemergence",100%
same,pest or weed control at 125 g/ha,"[6]; pre-emergence, Preemergence",100%
same,pest or weed control at 16 g/ha,"[7]; post-emergence, Postemergence",70%
same,pest or weed control at 31 g/ha,"[7]; post-emergence, Postemergence",85%
same,pest or weed control at 62 g/ha,"[7]; post-emergence, Postemergence",95%
same,pest or weed control at 125 g/ha,"[7]; post-emergence, Postemergence",95%
same,pest or weed control at 16 g/ha,"[7]; pre-emergence, Preemergence",80%
same,pest or weed control at 31 g/ha,"[7]; pre-emergence, Preemergence",100%
same,pest or weed control at 62 g/ha,"[7]; pre-emergence, Preemergence",100%
same,pest or weed control at 125 g/ha,"[7]; pre-emergence, Preemergence",100%
same,pest or weed control at 16 g/ha,[8]; 16 g ai/ha,5%
same,pest or weed control at 31 g/ha,[8]; 31 g ai/ha,5%
same,pest or weed control at 62 g/ha,[8]; 62 g ai/ha,5%
same,pest or weed control at 125 g/ha,[8]; 125 g ai/ha,5%
same,pest or weed control at 16 g/ha,"[9]; post-emergence, Postemergence",5%
same,pest or weed control at 31 g/ha,"[9]; post-emergence, 31 g ai/ha, Postemergence",10%
same,pest or weed control at 62 g/ha,"[9]; post-emergence, Postemergence",25%
same,pest or weed control at 125 g/ha,"[9]; post-emergence, Postemergence",40%
same,pest or weed control at 16 g/ha,"[9]; pre-emergence, Preemergence",5%
same,pest or weed control at 62 g/ha,"[9]; pre-emergence, Preemergence",100%
same,pest or weed control at 125 g/ha,"[9]; pre-emergence, Preemergence",100%
same,plant injury at 16 g/ha,"[10]; post-emergence, Postemergence",0%
same,plant injury at 31 g/ha,"[10]; post-emergence, Postemergence",0%
same,plant injury at 62 g/ha,"[10]; post-emergence, Postemergence",5%
same,plant injury at 125 g/ha,"[10]; post-emergence, Postemergence",10%
same,plant injury at 16 g/ha,"[10]; pre-emergence, Preemergence",5%
same,plant injury at 31 g/ha,"[10]; pre-emergence, Preemergence",10%
same,plant injury at 62 g/ha,"[10]; pre-emergence, Preemergence",10%
same,plant injury at 125 g/ha,"[10]; pre-emergence, Preemergence",35%
same,pest or weed control at 16 g/ha,"[11]; post-emergence, Postemergence",5%
same,pest or weed control at 31 g/ha,"[11]; post-emergence, Postemergence",0%
same,pest or weed control at 62 g/ha,"[11]; post-emergence, Postemergence",10%
same,pest or weed control at 125 g/ha,"[11]; post-emergence, Postemergence",10%
same,pest or weed control at 16 g/ha,"[11]; pre-emergence, Preemergence",20%
same,pest or weed control at 31 g/ha,"[11]; pre-emergence, Preemergence",20%
same,pest or weed control at 62 g/ha,"[11]; pre-emergence, Preemergence",55%
same,pest or weed control at 125 g/ha,"[11]; pre-emergence, Preemergence",55%
